Patent US20220000805A1, “COMBINATION OF M-OPIOID RECEPTOR (MOR) MODULATORS FOR PREVENTING AND TREATING PAIN, S[…] MENTAL DISORDERS” (HADAS IT MEDICAL RESEARCH SERVICES & DEVELOPMENT LIMITED, priority 2018, published 2022)
Where “and” joins values, the source holds several entries; their conditions need not be identical. Equal values may be shown once. Read-outs that look alike come from different tables or passages of the source.

Key:
[1] = single iv bolus dose of 0.5 mg/kg racemic ketamine; for at least 24 hrs; cited from earlier work
[2] = target: T1, h-OPRM1 (human MOR) (Homo sapiens, UniProt P35372); assay type: cell-based
T1 construct: host or cells: Chinese hamster ovary (CHO) cells, cAMP Hunter cell line
Method: Tracking cAMP Secondary Messenger Pathway in MOR Expressing Cells (DiscoverX)
A Chinese hamster ovary cell line stably expressing non-tagged h-OPRM1 (human MOR) that signal through cAMP was used.
1. cAMP Hunter cell line expressing h-OPRM1 was expanded from freezer stocks according to standard procedures. 2. Cells were seeded in a total volume of 20 μL into white walled, 384-well microplates and incubated at 37° C. for the appropriate time prior to testing. 3. cAMP modulation was determined using the DiscoverX HitHunter cAMP XS+ assay (for further details, see below).
1. For agonist determination, cells were incubated with sample in the presence of EC80 forskolin to induce cAMP-generation and Gi agonist activity, inhibiting cAMP formation, by the test compound was assayed, as follows: 2. Media was aspirated from cells and replaced with 15 μL 2:1 HBSS/10 mM Hepes: cAMP XS+Ab reagent. 3. Intermediate dilution of sample stocks was performed to generate 4× sample in assay buffer containing 4× EC80 forskolin. An amount of 4.5 μL of 4× sample was added to cells and incubated at 37° C. or room temperature for 30 or 60 minutes. The vehicle used for all stock solutions is DMSO and its final concentration in the assay system was 1%.
1. After appropriate compound incubation, assay signal was generated through incubation with 20 μL cAMP XS+ED/CL lysis cocktail for one hour followed by incubation with 20 μL cAMP XS+EA reagent for three hours at room temperature. 2. Microplates were read following signal generation with a PerkinElmer Envision™ instrument for chemiluminescent signal detection.
1. Compound activity was analyzed using CBIS data analysis suite (ChemInnovation, CA). 2. For Gi agonist mode assays, percentage activity is calculated using the following formula: % Activity=100%×(1−(mean RLU of test sample−mean RLU of MAX control)/(mean RLU of vehicle control−mean RLU of MAX control)).
OPRM1, the μ-opioid receptor (MOR), is a GPCR with high affinity for enkephalins and beta-endorphin, but a low affinity for dynorphins. The prototypical OPRM1 agonist is morphine, the primary psychoactive alkaloid in opium. It is an inhibitory G-protein coupled receptor that activates the Gi alpha subunit, inhibiting adenylate cyclase activity, thereby lowering cAMP levels. In order to test synergy of various drug combinations, towards the human receptor (h-OPRM1), a high sensitivity and absolute selectivity assay system, developed by DiscoverX (Fremont, Calif., USA) was employed. The analytical power of this assay, described in detail below, enables unequivocal identification of agonistic or antagonistic activity of drugs towards h-OPRM1, at the biologically relevant cellular context. […] A positive control dose-response was also examined in parallel (see FIG. 6).

[3] = tested on: opioid-receptor; settings: opioid agonist; relative to 7-hydroxymitragynine; cited from earlier work

T1 sequence (P35372 whole entry): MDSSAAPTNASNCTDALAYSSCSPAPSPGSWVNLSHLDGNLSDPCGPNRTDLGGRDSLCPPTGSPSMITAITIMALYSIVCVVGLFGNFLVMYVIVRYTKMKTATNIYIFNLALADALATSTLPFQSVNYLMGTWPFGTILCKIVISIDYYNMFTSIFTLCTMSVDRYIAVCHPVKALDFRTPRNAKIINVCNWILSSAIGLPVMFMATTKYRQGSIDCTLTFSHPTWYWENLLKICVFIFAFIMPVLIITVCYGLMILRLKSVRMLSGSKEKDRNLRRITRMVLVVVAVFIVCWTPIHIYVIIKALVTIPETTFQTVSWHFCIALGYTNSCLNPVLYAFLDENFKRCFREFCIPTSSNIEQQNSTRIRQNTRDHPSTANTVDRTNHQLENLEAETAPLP

CNC1(c2ccccc2Cl)CCCCC1=O (racemic) [Ketamine, (RS)-2-(2-Chlorophenyl)-2-(methylamino)cyclohexanone]
HNK serum concentrations [1]: about 30 nM

N[C@@]1(c2ccccc2Cl)CCC[C@@H](O)C1=O.O=C(O)C(F)(F)F (racemic) [HNK, rac-(2r,6r)-2 amino-2-(2-chlorophenyl)-6-hydroxycyclohexan-1-one; trifluoroacetic acid, trans]
agonistic activity of the ketamine active metabolite by itself [2]: no agonistic activity | Agonistic activity (% of maximal c-AMP inhibition) ([2]; HNK 0.08 nM by itself, Table 2/5 series): 0% and 3.1% | Agonistic activity (% of maximal c-AMP inhibition) ([2]; HNK 0.4 nM by itself, Table 2/5 series): 0% and 7.6% | Agonistic activity (% of maximal c-AMP inhibition) ([2]; HNK 2 nM by itself, Table 2/5 series): 0% | Agonistic activity (% of maximal c-AMP inhibition) ([2]; HNK 10 nM by itself, Table 2/5 series): 0% | Agonistic activity (% of maximal c-AMP inhibition) ([2]; HNK 50 nM by itself, Table 1 series): 1.3% | Agonistic activity (% of maximal c-AMP inhibition) ([2]; HNK 50 nM by itself, Table 2/5 series): 0% and 6.7% | Agonistic activity (% of maximal c-AMP inhibition) ([2]; HNK 300 nM by itself, Table 1 series): 10.3% | Agonistic activity (% of maximal c-AMP inhibition) ([2]; HNK 1,800 nM by itself, Table 1 series): −3.4% | Agonistic activity (% of maximal c-AMP inhibition) ([2]; HNK 11,000 nM by itself, Table 1 series): −8.6%

10-fluoro ethylene glycol adduct of 7-hydroxymitragynine
potency higher than 7-hydroxymitragynine [3]: 4 fold

CN1c2ccccc2C(NCCCCCCC(=O)O)c2ccc(Cl)cc2S1(=O)=O (stereo not shown) [Tia, 7-[(3-Chloro-6-methyl-5,5-dioxo-11H-benzo[c][2,1]benzothiazepin-11-yl)amino]heptanoic acid]
amount of the single agent that obtains the level of activity of the combination [2]: > 5 ×
